Experimental data reported in ChEMBL document CHEMBL1142499 (Bioorg Med Chem Lett, 2008).

Key:
[1] = Bioavailability in orally and iv dosed dog; type: ADME, organism-based, Canis lupus familiaris; details: in vivo, po
Ovis aries = experiment: Inhibition of late-phase antigen-induced bronchoconstriction in ascaris-sensitive sheep at 0.5 mg/kg, iv daily for 4 days and antigen challenged after 2 hrs post dose on 4th day; type: functional
[2] = Half life in orally and iv dosed Squirrel monkey; type: ADME, organism-based, Saimiri sciureus; details: in vivo
[3] = Bioavailability in orally and iv dosed rat; type: ADME, organism-based; details: in vivo, po
[4] = Half life in orally and iv dosed dog; type: ADME, organism-based, Canis lupus familiaris; details: in vivo
[5] = Half life in orally and iv dosed rat; type: ADME, organism-based; details: in vivo
[6] = Bioavailability in orally and iv dosed Squirrel monkey; type: ADME, organism-based, Saimiri sciureus; details: in vivo, po
[7] = Cmax in po dosed squirrel monkey assessed after first episode of emesis; type: ADME, organism-based, Saimiri sciureus; set-up: route oral; details: in vivo
[8] = target: Voltage-gated inwardly rectifying potassium channel KCNH2 (Homo sapiens, UniProt Q12809)
[9] = target: 3',5'-cyclic-AMP phosphodiesterase 4A (Homo sapiens, UniProt P27815); experiment: Intrinsic inhibition of GST-fused human PDE4A expressed in SF9 cells
Blood [10] = experiment: Inhibition of LPS-induced TNFalpha production in human whole blood; type: functional, tissue-based
Blood [11] = experiment: Inhibition of LPS-induced TNFalpha production in Squirrel monkey whole blood; type: functional, tissue-based; details: Saimiri sciureus
Cavia porcellus = experiment: Inhibition of ovalbumin-induced bronchoconstriction in conscious guinea pig at 0.03 mg/kg, ip administered 30 mins before ovalbumin challenge; type: functional; details: route intraperitoneal
[12] = Ratio of emesis Cmax in Squirrel monkey at 2 mg/kg, po to IC50 for LPS-induced TNFalpha production in Squirrel monkey whole blood; type: functional, Saimiri sciureus
Cytochrome P450 2C9 = Cytochrome P450 2C9 (Homo sapiens, UniProt P11712); experiment: Inhibition of CYP2C9; type: ADME
Chain of Cytochrome P450 2C9 (P11712 whole entry): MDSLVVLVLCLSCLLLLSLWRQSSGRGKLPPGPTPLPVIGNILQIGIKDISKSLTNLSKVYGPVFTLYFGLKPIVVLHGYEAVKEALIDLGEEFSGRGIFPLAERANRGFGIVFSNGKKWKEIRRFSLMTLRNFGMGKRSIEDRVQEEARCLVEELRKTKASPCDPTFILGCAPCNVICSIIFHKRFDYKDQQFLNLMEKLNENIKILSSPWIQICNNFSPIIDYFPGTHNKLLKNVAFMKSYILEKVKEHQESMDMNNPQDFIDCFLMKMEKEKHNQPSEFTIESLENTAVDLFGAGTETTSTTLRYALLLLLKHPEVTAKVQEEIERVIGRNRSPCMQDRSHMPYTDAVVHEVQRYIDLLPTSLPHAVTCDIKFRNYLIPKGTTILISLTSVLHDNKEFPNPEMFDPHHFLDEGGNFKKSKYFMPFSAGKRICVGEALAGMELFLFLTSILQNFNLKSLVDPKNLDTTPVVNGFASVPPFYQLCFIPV

Chain of Voltage-gated inwardly rectifying potassium channel KCNH2 (Q12809 whole entry, the tested form may be a part): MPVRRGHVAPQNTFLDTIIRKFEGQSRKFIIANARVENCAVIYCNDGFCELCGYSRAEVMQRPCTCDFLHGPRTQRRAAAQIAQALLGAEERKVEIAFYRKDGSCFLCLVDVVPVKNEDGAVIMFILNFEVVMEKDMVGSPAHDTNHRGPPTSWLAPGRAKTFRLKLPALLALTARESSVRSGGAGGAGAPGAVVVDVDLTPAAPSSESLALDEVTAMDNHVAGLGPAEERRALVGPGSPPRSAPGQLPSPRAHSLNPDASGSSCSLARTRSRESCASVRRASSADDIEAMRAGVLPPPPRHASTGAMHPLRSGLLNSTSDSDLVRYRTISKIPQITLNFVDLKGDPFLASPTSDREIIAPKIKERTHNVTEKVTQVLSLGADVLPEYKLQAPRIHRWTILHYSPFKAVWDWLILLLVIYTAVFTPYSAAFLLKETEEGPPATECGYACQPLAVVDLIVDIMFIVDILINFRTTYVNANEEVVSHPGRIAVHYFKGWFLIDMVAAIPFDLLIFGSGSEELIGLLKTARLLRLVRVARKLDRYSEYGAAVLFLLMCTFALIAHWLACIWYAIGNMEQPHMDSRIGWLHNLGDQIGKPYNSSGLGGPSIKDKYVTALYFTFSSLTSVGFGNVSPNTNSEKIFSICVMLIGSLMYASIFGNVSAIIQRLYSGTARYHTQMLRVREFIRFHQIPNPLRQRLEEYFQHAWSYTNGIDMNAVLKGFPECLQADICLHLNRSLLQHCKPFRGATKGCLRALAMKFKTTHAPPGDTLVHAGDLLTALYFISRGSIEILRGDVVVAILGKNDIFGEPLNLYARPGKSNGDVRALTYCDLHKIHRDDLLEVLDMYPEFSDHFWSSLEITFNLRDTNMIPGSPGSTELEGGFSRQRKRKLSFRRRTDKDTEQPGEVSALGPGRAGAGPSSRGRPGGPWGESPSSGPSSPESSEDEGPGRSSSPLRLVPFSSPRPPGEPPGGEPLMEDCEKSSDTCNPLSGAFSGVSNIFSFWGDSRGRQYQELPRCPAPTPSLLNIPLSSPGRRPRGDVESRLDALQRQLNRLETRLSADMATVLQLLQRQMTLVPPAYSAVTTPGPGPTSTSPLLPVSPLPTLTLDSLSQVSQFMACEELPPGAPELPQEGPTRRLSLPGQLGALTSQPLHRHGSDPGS
Chain of 3',5'-cyclic-AMP phosphodiesterase 4A (P27815 whole entry, the tested form may be a part): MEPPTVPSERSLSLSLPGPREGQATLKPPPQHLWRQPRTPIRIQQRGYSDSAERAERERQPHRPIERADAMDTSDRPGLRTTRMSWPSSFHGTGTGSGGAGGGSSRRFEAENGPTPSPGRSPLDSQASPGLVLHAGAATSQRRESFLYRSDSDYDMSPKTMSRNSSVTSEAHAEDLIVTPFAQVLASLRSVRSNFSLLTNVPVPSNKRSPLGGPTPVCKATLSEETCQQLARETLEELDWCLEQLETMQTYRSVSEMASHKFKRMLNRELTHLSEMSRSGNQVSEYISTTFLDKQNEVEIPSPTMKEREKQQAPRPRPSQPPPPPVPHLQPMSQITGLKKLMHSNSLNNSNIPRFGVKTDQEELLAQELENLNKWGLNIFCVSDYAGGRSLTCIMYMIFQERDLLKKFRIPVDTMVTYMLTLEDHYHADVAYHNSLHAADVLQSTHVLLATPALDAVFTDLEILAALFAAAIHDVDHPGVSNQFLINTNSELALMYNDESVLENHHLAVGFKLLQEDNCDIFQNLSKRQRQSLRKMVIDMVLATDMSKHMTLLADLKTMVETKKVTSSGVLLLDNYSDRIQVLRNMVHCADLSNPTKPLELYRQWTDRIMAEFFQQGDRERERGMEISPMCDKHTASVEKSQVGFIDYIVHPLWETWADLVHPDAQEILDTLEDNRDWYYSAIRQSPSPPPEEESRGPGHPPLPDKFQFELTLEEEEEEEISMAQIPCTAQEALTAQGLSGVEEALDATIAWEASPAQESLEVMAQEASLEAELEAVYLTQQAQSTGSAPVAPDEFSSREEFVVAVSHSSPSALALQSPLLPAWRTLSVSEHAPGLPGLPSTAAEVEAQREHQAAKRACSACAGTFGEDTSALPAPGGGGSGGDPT

Compound | IC50 [9] [nM] | IC50 (Blood [10]) [nM] | IC50 [8] [nM] | also measured
Cc1noc(/C(=C/c2cccc(-c3cc(C(C)(C)S(C)(=O)=O)cc4cccnc34)c2)c2ccc(S(C)(=O)=O)cc2)n1 | – | – | – | bioavailability [1]: 55%; inhibition in vivo at 0.5 mg/kg (Ovis aries): 92%; half-life [2]: 4 h; bioavailability [3]: 95%; half-life [4]: 5 h; half-life [5]: 4 h; bioavailability [6]: 33%; Cmax [7]: 3 µM
O=C(Nc1c(Cl)cncc1Cl)c1cn(-c2ccc(Cl)cc2)c2ncccc2c1=O | 0.45 | 180 | 198 | –
CC(C)NC(=O)c1cn(-c2cccc(Br)c2)c2ncccc2c1=O | 9.2 | 700 | 31600 | –
CC(C)NC(=O)c1cn(-c2ccccc2)c2ncccc2c1=O | 15.3 | 700 | 71500 | –
CCOc1cccc(-c2cccc(-n3cc(C(=O)NC(C)C)c(=O)c4cccnc43)c2)c1 | 1.54 | 840 | 2700 | –
CC(C)N(C)C(=O)c1cn(-c2cccc(Br)c2)c2ncccc2c1=O | > 1000 | – | – | –
CC(C)CNC(=O)c1cn(-c2cccc(Br)c2)c2ncccc2c1=O | 3.54 | 2100 | – | –
Cc1ccc2c(=O)c(C(=O)NC(C)C)cn(-c3cccc(Br)c3)c2n1 | > 1000 | – | – | –
NC(=O)c1cn(-c2cccc(Br)c2)c2ncccc2c1=O | 141 | – | > 94500 | –
CC(=O)c1cccc(-c2cccc(-n3cc(C(=O)NC(C)C)c(=O)c4cccnc43)c2)c1 | 0.37 | 470 | 6960 | –
O=C(NC1CC1)c1cn(-c2cccc(-c3ccncc3)c2)c2ncccc2c1=O | – | 670 | 18600 | –
CSc1ccc(-c2cccc(-n3cc(C(=O)NC(C)C)c(=O)c4cccnc43)c2)cc1 | 0.75 | 650 | 960 | –
Cc1ccc(-n2cc(C(=O)NC(C)C)c(=O)c3cccnc32)cc1Br | 66.5 | – | – | –
CC(C)(O)c1ccc(C#Cc2cccc(-n3cc(C(=O)NC4CC4)c(=O)c4cccnc43)c2)c[n+]1[O-] | – | 300 | 89400 | –
O=C(NC1CC1)c1cn(-c2cccc(C#Cc3cccnc3)c2)c2ncccc2c1=O | – | 160 | 16700 | –
O=C(NC1CC1)c1cn(-c2cccc(C#Cc3ccc[n+]([O-])c3)c2)c2ncccc2c1=O [MK-0873] | 6.7 | 180 | – | bioavailability [1]: 100%; IC50 (Blood [11]): 23 nM; inhibition in vivo at 0.5 mg/kg (Ovis aries): 84%; half-life [2]: 5 h; bioavailability [3]: 98%; half-life [4]: 2 h; inhibition in vivo at 0.03 mg/kg (Cavia porcellus): 65%; half-life [5]: 2 h; IC50 (Cytochrome P450 2C9): 41000 nM; bioavailability [6]: 38%; Cmax [7]: 5.1 µM

Further lines, with some results ahead:

IC50 [9] [nM] | IC50 (Blood [10]) [nM] | Compound | IC50 [8] [nM] | also measured
0.62 | 69 | CC(C)NC(=O)c1cn(-c2cccc(-c3ccc(S(C)(=O)=O)cc3)c2)c2ncccc2c1=O | 23000 | –
– | 140 | CS(=O)(=O)c1ccc(-c2cccc(-n3cc(C(=O)NC4CC4)c(=O)c4cccnc43)c2)cn1 | 13600 | –
6.2 | 120 | CC(C)(O)c1ccc(-c2cccc(-n3cc(C(=O)NC4CC4)c(=O)c4cccnc43)c2)c[n+]1[O-] | 50100 | bioavailability [1]: 100%; IC50 (Blood [11]): 7 nM; inhibition in vivo at 0.5 mg/kg (Ovis aries): 84%; half-life [2]: 4 h; bioavailability [3]: 87%; half-life [4]: 2 h; inhibition in vivo at 0.03 mg/kg (Cavia porcellus): 69%; Ratio [12]: 530; half-life [5]: 1.5 h; IC50 (Cytochrome P450 2C9): 59000 nM; bioavailability [6]: 33%; Cmax [7]: 3.7 µM
0.06 | 3 | Cc1noc(/C(=C/c2cccc(-n3cc(C(=O)Nc4c(Cl)cncc4Cl)c(=O)c4cccnc43)c2)c2ccc(S(C)(=O)=O)cc2)n1 | – | –
0.17 | 5 | CC(=O)c1cccc(-c2cccc(-n3cc(C(=O)Nc4c(Cl)cncc4Cl)c(=O)c4cccnc43)c2)c1 | – | –
0.34 | 75 | CC(=O)c1ccc(-c2cccc(-n3cc(C(=O)NC(C)C)c(=O)c4cccnc43)c2)cc1 | – | –
– | 160 | O=C(NC1CC1)c1cn(-c2cccc(-c3cccnc3)c2)c2ncccc2c1=O | – | –
– | 66 | CC(C)(O)c1ccc(-c2cccc(-n3cc(C(=O)NC4CC4)c(=O)c4cccnc43)c2)cn1 | – | half-life [5]: < 0.5 h
